Experimental data from US20120065228A1, “COMPOSITIONS AND METHODS FOR TREATING, CONTROLLING, REDUCING, OR AMELIORATING OCULAR INFLAMMATORY WITH LOWER RISK OF INCREASED INTRAOCULAR PRESSURE” (priority 2007, published 2012).
“And” between values parts separate entries of the source, which are not always exact repeats. Identical values can stand only once.

Assays:
[1] = system: PGE2 in the aqueous humor; experiment: Prostaglandin E2 (PGE2) measurement in aqueous humor, rabbit paracentesis model; assay type: in vivo; details: 0.1% topical formulation, second paracentesis
Procedure: (§1) Each rabbit was placed in a restraint device and tagged with the alphanumeric code. The formulations were instilled (50 μl) into the conjunctival sac of both eyes 180, 120, 90 and 30 min before the first paracentesis; then 15, 30, 90 min after the first paracentesis. To perform the first paracentesis the animals were anaesthetized by intravenous injection of 5 mg/kg Zoletil® (Virbac; 2.5 mg/kg tiletamine HCl and 2.5 mg/kg zolazepam HCl) and one drop of local anesthetic (Novesina®, Novartis) was administered to the eye. Anterior chamber paracentesis was performed with a 26 G needle attached to a tuberculin syringe; the needle was introduced into the anterior chamber through the cornea, taking care not to damage the tissues. Two hours after the ® first paracentesis, the animals were sacrificed with 0.4 ml Tanax® (Intervet International B.V.) and the second paracentesis was performed. About 100 μl of aqueous humor were removed at the second paracentesis. Aqueous humor was immediately split in four aliquots and stored at −80° C. until analysis. Then both eyes were enucleated and the iris-ciliary body was carefully excised, placed in polypropylene tubes, and stored at −80° C. until analysis.
For the quantitative determination of PGE2 in the aqueous humor we used the PGE2 Immunoassay kit (R&D Systems; Cat. No. KGE004; Lot. No. 240010). Eleven microliters or 16 μl of aqueous humor were diluted to 110 μl or 160 μl with the calibrator diluent solution provided with the kit. One hundred microliters of samples and of standards were load into a 96-well plate and recorded in a plate layout. Samples were treated following the assay procedure described in the kit. A microplate reader (GDV, Italy; model DV 990 B/V6) set at 450 nm (wavelength correction at 540 nm) was used for making the calibration and analyzing the samples.
(§2) Pupillary diameter, PGE2, protein, PMN, and MPO were expressed as mean±SEM. Statistical analysis was performed using one way ANOVA followed by a Newman-Keuls post hoc test. Clinical score was expressed as % of eyes and the statistical analysis was performed using Kruskal-Wallis followed by a Dunn post hoc test. P<0.05 was considered statistically significant in both cases. Prism 4 software (GraphPad Software, Inc.) was used for the analysis and graphs.

leukocytes (PMN) = experiment: Leukocytes (PMN) measurement in aqueous humor, rabbit paracentesis model; assay type: in vivo; details: 0.1% topical formulation, second paracentesis
Procedure: as §1
For the determination of the number of leukocytes we used a haemocytometer (Improved Neubauer Chamber; Bright-line. Hausser Scientific) and a Polyvar 2 microscope (Reichert-Jung).
as §2

monkey TM cells = experiment: Cell metabolic activity (resazurin reduction) assay in monkey TM cells; assay type: cell-based, rhesus monkeys (Macaca mulatta); details: at the conclusion of the treatment periods
Procedure: A modification of previously described methods^40 was employed to evaluate cell metabolic activity, an index of cell viability. After collection of CM samples, cells were briefly rinsed in modified Hanks balanced salt solution containing Ca^++ and Mg^++ (“MHBSS”), and then 0.0025% (w/v) resazurin (Sigma) in MHBSS was added to sample wells. Plates were incubated (37° C., 5% CO2, 95% humidity) for 90 minutes, after which fluorescence (Excitation 560 nm, Emission 590 nm) was read (Victor 3V Multilabel Counter, Wallac, Turku, Finland). As a positive control for decreased cellular metabolic reduction of resazurin, in each plate an additional well of vehicle control-treated cells was preincubated with 0.06% hydrogen peroxide (Fisher, Atlanta, Ga.) in MHBSS.

Myeloperoxidase (MPO) = Myeloperoxidase (MPO) activity in iris-ciliary body, rabbit paracentesis model; assay type: in vivo
Procedure: as §1
The activity of MPO was measured as previously described by Williams et al. The iris-ciliary bodies were carefully dried, weighed and immersed in 1 ml of hexa-decyl-trimethyl-ammonium bromide solution. Then, the samples were sonicated for 10 sec on ice by a ultrasound homogenizer (HD 2070, Bandelin electronic), freeze-thawed three times, sonicated for 10 sec and centrifuged at 14,000 g for 10 min to remove cellular debris. An aliquot of the supernatant (40-200 μl) was diluted to 3 ml with the o-dianisidine 2HCl/H2O2 solution. The change in absorbance at 460 nm was continuously monitored for 5 min by a spectrophotometer (UV/Vis Spectrometer Lambda EZ 201; Perkin Elmer). The slope of the line (Δ/min) was determined for each sample and used to calculate the number of units of MPO in the tissue as follows:
were ε=11.3 mM^−1. Values were expressed as units of MPO/g of tissue.
as §2

rabbit eye = experiment: Clinical evaluation by slit lamp (clinical score), rabbit paracentesis model; assay type: in vivo; set-up: key to Clinical Score −180 min / Clinical Score −5 min / Clinical Score +115 min: 0: normal; 1: discrete dilatation of iris and conjunctival vessels; 2: moderate dilatation of iris and conjunctival vessels; 3: intense iridal hyperemia with flare in the anterior chamber; 4: intense iridal hyperemia with flare in the anterior chamber and presence of fibrinous exudates; details: 0.1% topical formulation
[2] = system: New Zealand White rabbits; assay type: in vivo
Procedure: On Days 1-31, animals received daily topical doses of the appropriate test article into the right eye. Animals were dosed four times per day, with doses administered 2 hours apart. Doses were administered using a calibrated 50-μL pipette. The eyelids were held close for 10 seconds immediately following dosing. The time of each dose administration was recorded.
Animals determined to be moribund were euthanized with an intravenous injection of commercial euthanasia solution.

C[C@@H]1C[C@H]2[C@@H]3CCC4=CC(=O)C=C[C@]4(C)[C@@]3(F)[C@@H](O)C[C@]2(C)[C@@]1(O)C(=O)CO [dexamethasone, reference compound]
PGE2 in aqueous humor, Mean [1]: 2.263 ng/mL
PGE2 in aqueous humor ([1]; individual eyes, listed as Dex): 2.51 ng/ml and 2.32 ng/ml (2×) and 2.10 ng/ml and 3.03 ng/ml and 1.30 ng/ml
PMN in aqueous humor, Mean (leukocytes (PMN)): 30.000 number/μl
PMN in aqueous humor (leukocytes (PMN); individual eyes, listed as Dex): 20 number/μl (3×) and 50 number/μl and 40 number/μl and 30 number/μl
Cell viability (chemical reduction of resazurin) compared to vehicle controls (monkey TM cells): nor did any drug treatments result in a loss of cell viability
MPO Unit/g (Myeloperoxidase (MPO); 0.1% Dex, iris-ciliary body samples collected after the second paracentesis, individual eyes (DX/SX), listed as Dex): 0.71 Unit/g and 0.60 Unit/g and 1.32 Unit/g and 0.48 Unit/g (2×) and 0.39 Unit/g and 0.45 Unit/g and 0.51 Unit/g
MPO activity in iris-ciliary body, Mean (Myeloperoxidase (MPO); 0.1% topical formulation, after the second paracentesis): 0.618 MPO Unit/g
Clinical Score −5 min (rabbit eye; 5 min before the first paracentesis, individual eyes, listed as Dex): 0 (6×) and 1 (2×)
Clinical Score +115 min (rabbit eye; 5 min before the second paracentesis, individual eyes, listed as Dex): 1 (6×) and 3 (2×)
Clinical score as percentage of eyes, Score (%) 1 (rabbit eye; +115 min, 8 eyes): 75%
Clinical score as percentage of eyes, Score (%) 3 (rabbit eye; +115 min, 8 eyes): 25%
Clinical Score −180 min (rabbit eye; basal, individual eyes): 0
Clinical score as percentage of eyes, Score (%) 0 (rabbit eye; −5 min, 8 eyes): 75%
Clinical score as percentage of eyes, Score (%) 1 (rabbit eye; −5 min, 8 eyes): 25%
Clinical score as percentage of eyes, Score (%) 0 (rabbit eye; −180 min (basal), 8 eyes): 100%
Rabbits that died or were euthanized between Days 11 and 33 ([2]; 0.05 mg/dose (0.1% dexamethasone suspension; 1 mg/g BOL-303242-X suspension), right eye four times daily, Days 1-31): Six of ten
Mortality (animals found dead or euthanized prior to study completion/number of animals in group) ([2]; 0.1% Dexamethasone (Maxidex), 0.05 mg/dose, 50 μL topical right eye 4 x daily, to Day 33): 6/10^(3)
Mortality rate ([2]; right eye four times daily up to 31 days, dexamethasone 0.05 mg/dose, BOL-303242-X per dose level (0.05, 0.25, 0.5 mg/dose)): 6 deaths per 10 rabbits
